Converted amounts (≈) assume the structure as drawn. Blank lines part the entries; values can stand above or below the compound they belong to. The source made the active and inactive calls. The rule behind the calls is not given here.
What was measured:
[1] = system: Acinetobacter baumannii; assay: Antibacterial activity against Acinetobacter baumannii ATCC 19606 assessed as reduction in microbial growth incubated for 20 to 22 hrs by CLSI based analysis; format: functional; conditions: time 20-22 hrs
[2] = system: Escherichia coli; assay: Antibacterial activity against Escherichia coli ATCC 35218 infected in Swiss albino mouse model of Septicaemia infection assessed as log reduction in Septicaemia in blood at 20 mg/kg , iv preincubated for 4 hrs followed by bacterial infection and measured after 4 hrs post infection; format: functional; conditions: time 8 hrs
[3] = system: Klebsiella pneumoniae; assay: Antibacterial activity against Klebsiella pneumoniae ATCC 13883 assessed as reduction in microbial growth incubated for 20 to 22 hrs by CLSI based analysis; format: functional; conditions: time 20-22 hrs
[4] = system: Escherichia coli; assay: Antibacterial activity against Escherichia coli ATCC 35218 assessed as reduction in microbial growth incubated for 20 to 22 hrs by CLSI based analysis; format: functional; conditions: time 20-22 hrs
[5] = system: Escherichia coli; assay: Antibacterial activity against multidrug-resistant Escherichia coli BAA2469 assessed as bacterial growth inhibition incubated for 20 to 22 hrs by CLSI based analysis; format: functional; conditions: time 20-22 hrs
[6] = system: Citrobacter freundii; assay: Antibacterial activity against multidrug-resistant Citrobacter freundii ATCC 8090 assessed as bacterial growth inhibition incubated for 20 to 22 hrs by CLSI based analysis; format: functional; conditions: time 20-22 hrs
[7] = system: Pseudomonas aeruginosa; assay: Antibacterial activity against multidrug-resistant Pseudomonas aeruginosa PAO1 assessed as bacterial growth inhibition incubated for 20 to 22 hrs by CLSI based analysis; format: functional; conditions: time 20-22 hrs
[8] = system: Klebsiella pneumoniae; assay: Antibacterial activity against multidrug-resistant Klebsiella pneumoniae BAA2146 assessed as bacterial growth inhibition incubated for 20 to 22 hrs by CLSI based analysis; format: functional; conditions: time 20-22 hrs
[9] = system: Providencia stuartii; assay: Antibacterial activity against multidrug-resistant Providencia stuartii ATCC 49809 assessed as bacterial growth inhibition incubated for 20 to 22 hrs by CLSI based analysis; format: functional; conditions: time 20-22 hrs
[10] = system: Proteus mirabilis; assay: Antibacterial activity against multidrug-resistant Proteus mirabilis ATCC 7002 assessed as bacterial growth inhibition incubated for 20 to 22 hrs by CLSI based analysis; format: functional; conditions: time 20-22 hrs
[11] = system: Escherichia coli; assay: Antibacterial activity against multidrug-resistant Escherichia coli IR45 assessed as bacterial growth inhibition incubated for 20 to 22 hrs by CLSI based analysis; format: functional; conditions: time 20-22 hrs
[12] = system: Escherichia coli; assay: Antibacterial activity against […] assessed as bacterial growth inhibition incubated for 20 to 22 hrs by CLSI based analysis; format: functional; conditions: time 20-22 hrs
[13] = system: Enterobacter cloacae; assay: Antibacterial activity against multidrug-resistant Enterobacter cloacae BAA2341 assessed as bacterial growth inhibition incubated for 20 to 22 hrs by CLSI based analysis; format: functional; conditions: time 20-22 hrs
[14] = system: Klebsiella pneumoniae; assay: Antibacterial activity against multidrug-resistant Klebsiella pneumoniae B817 assessed as bacterial growth inhibition incubated for 20 to 22 hrs by CLSI based analysis; format: functional; conditions: time 20-22 hrs
[15] = system: Pseudomonas aeruginosa; assay: Antibacterial activity against multidrug-resistant Pseudomonas aeruginosa PAO750 assessed as bacterial growth inhibition incubated for 20 to 22 hrs by CLSI based analysis; format: functional; conditions: time 20-22 hrs
[16] = system: Acinetobacter baumannii; assay: Antibacterial activity against multidrug-resistant Acinetobacter baumannii R835 assessed as bacterial growth inhibition incubated for 20 to 22 hrs by CLSI based analysis; format: functional; conditions: time 20-22 hrs
[17] = system: Escherichia coli; assay: Antibacterial activity against multidrug-resistant Escherichia coli MG1655 harboring tolC mutant assessed as bacterial growth inhibition incubated for 20 to 22 hrs by CLSI based analysis; format: functional; conditions: time 20-22 hrs
[18] = system: Klebsiella pneumoniae; assay: Antibacterial activity against multidrug-resistant Klebsiella pneumoniae G199 assessed as bacterial growth inhibition incubated for 20 to 22 hrs by CLSI based analysis; format: functional; conditions: time 20-22 hrs
[19] = system: Klebsiella pneumoniae; assay: Antibacterial activity against […] assessed as bacterial growth inhibition incubated for 20 to 22 hrs by CLSI based analysis; format: functional; conditions: time 20-22 hrs
[20] = system: Escherichia coli; assay: Antibacterial activity against multidrug-resistant Escherichia coli UT189 assessed as bacterial growth inhibition incubated for 20 to 22 hrs by CLSI based analysis; format: functional; conditions: time 20-22 hrs
[21] = system: Klebsiella pneumoniae; assay: Antibacterial activity against multidrug-resistant Klebsiella pneumoniae R1525 assessed as bacterial growth inhibition incubated for 20 to 22 hrs by CLSI based analysis; format: functional; conditions: time 20-22 hrs
[22] = system: Acinetobacter baumannii; assay: Antibacterial activity against multidrug-resistant Acinetobacter baumannii R831 assessed as bacterial growth inhibition incubated for 20 to 22 hrs by CLSI based analysis; format: functional; conditions: time 20-22 hrs
[23] = system: Escherichia coli; assay: Antibacterial activity against multidrug-resistant Escherichia coli MG1655 assessed as bacterial growth inhibition incubated for 20 to 22 hrs by CLSI based analysis; format: functional; conditions: time 20-22 hrs
[24] = system: Klebsiella pneumoniae; assay: Antibacterial activity against multidrug-resistant Klebsiella pneumoniae BAA2473 assessed as bacterial growth inhibition incubated for 20 to 22 hrs by CLSI based analysis; format: functional; conditions: time 20-22 hrs
[25] = system: Klebsiella pneumoniae; assay: Antibacterial activity against Klebsiella pneumoniae ATCC 13883 infected in Swiss albino mouse thigh infection model at 10 mg/kg, iv measured after 1 hr; format: functional, organism-based
[26] = Metabolic stability in mouse lung assessed as parent compound remaining measured after 1 hrs by UPLC-MS analysis; format: ADME, tissue-based; conditions: mouse lung, read-out: Stability
[27] = system: Escherichia coli; assay: Antibacterial activity against Escherichia coli ATCC 35218 harboring SbmA assessed as reduction in microbial growth incubated for 20 to 22 hrs by CLSI based analysis; format: functional; conditions: time 20-22 hrs
[28] = system: Klebsiella pneumoniae; assay: Antibacterial activity against Klebsiella pneumoniae ATCC 13883 harboring SbmA assessed as reduction in microbial growth incubated for 20 to 22 hrs by CLSI based analysis; format: functional; conditions: time 20-22 hrs
[29] = system: Escherichia coli; assay: Antibacterial activity against wild type Escherichia coli ATCC 35218 assessed as reduction in microbial growth incubated for 20 to 22 hrs by CLSI based analysis; format: functional; conditions: time 20-22 hrs
[30] = system: Acinetobacter baumannii; assay: Antibacterial activity against wild type Acinetobacter baumannii ATCC 19606 assessed as reduction in microbial growth incubated for 20 to 22 hrs by CLSI based analysis; format: functional; conditions: time 20-22 hrs
[31] = system: Escherichia coli; assay: Antibacterial activity against Escherichia coli ATCC 25922 infected in Swiss albino mouse thigh infection model at 10 mg/kg, iv measured after 1 hr; format: functional, organism-based
[32] = Metabolic stability in mouse kidney assessed as parent compound remaining measured after 4 hrs by UPLC-MS analysis; format: ADME, tissue-based; conditions: read-out: Stability
[33] = system: Klebsiella pneumoniae; assay: Antibacterial activity against Klebsiella pneumoniae ATCC 13883 infected in Swiss albino mouse model of neutropenic lung infection at 10 mg/kg, iv pretreated for 1 hr followed by bacterial infection and measured after 5 hr post infection; format: functional, organism-based; conditions: time 6.0 hrs
[34] = Metabolic stability in mouse lung assessed as parent compound remaining measured after 4 hrs by UPLC-MS analysis; format: ADME, tissue-based; conditions: mouse lung, read-out: Stability
[35] = Metabolic stability in mouse kidney assessed as parent compound remaining measured after 1 hrs by UPLC-MS analysis; format: ADME, tissue-based; conditions: read-out: Stability
[36] = system: Klebsiella pneumoniae; assay: Antibacterial activity against wild type Klebsiella pneumoniae ATCC 13883 assessed as reduction in microbial growth incubated for 20 to 22 hrs by CLSI based analysis; format: functional; conditions: time 20-22 hrs
[37] = system: Escherichia coli; assay: Antibacterial activity against Escherichia coli ATCC 35218 infected in Swiss albino mouse model of Septicaemia infection assessed as log reduction in Septicaemia in blood at 1 mg/kg , iv preincubated for 4 hrs followed by bacterial infection and measured after 4 hrs post infection; format: functional; conditions: time 8 hrs
[38] = system: Escherichia coli; assay: Antibacterial activity against Escherichia coli ATCC 35218 infected in Swiss albino mouse model of Septicaemia infection assessed as log reduction in Septicaemia in blood at 10 mg/kg , iv preincubated for 4 hrs followed by bacterial infection and measured after 4 hrs post infection; format: functional; conditions: time 8 hrs

MIC [1]: > 32 µg/mL
MIC [3]: 8 µg/mL
MIC [4]: 2 µg/mL
Structure (SMILES): CO[C@@H](CNC(=O)[C@H](NC(=O)[C@H](O)[C@H](C)O)[C@H](O)c1cncn1C)[C@H](O)[C@H](O)C(=O)N(C)[C@@H](Cc1ccccc1)C(=O)NCC(=O)N[C@H](C(=O)N[C@@H](CO)C(=O)N[C@H](C(=O)N[C@@H](CC(C)C)C(=O)N[C@@H](CO)C(=O)NCCN)C(C)(C)O)C(C)(C)O
Activity [2]: -4.1 log10CFU

Structure (SMILES): C[C@@H](O)[C@H]1C(=O)N2C(C(=O)O)=C(S[C@@H]3CN[C@H](C(=O)N(C)C)C3)[C@H](C)[C@H]12 [MEROPENEM]
MIC [5]: < 0.03 µg/mL
MIC [6]: ≤ 0.25 µg/mL
MIC [7]: 1 µg/mL (≈ 2.61 µM)
MIC [8]: > 16 µg/mL
MIC [9]: ≤ 0.25 µg/mL
MIC [10]: ≤ 0.25 µg/mL
MIC [11]: 8 µg/mL (≈ 20.9 µM)
MIC [12]: < 0.03 µg/mL
MIC [13]: > 16 µg/mL
MIC [14]: < 0.03 µg/mL
MIC [15]: ≤ 0.25 µg/mL

Structure (SMILES): C[C@@H](O)[C@H]1C(=O)N2C(C(=O)O)=C(SCCNC=N)C[C@H]12 [IMIPENEM ANHYDROUS]
MIC [5]: > 2 µg/mL
MIC [16]: > 1 µg/mL
MIC [6]: 1 µg/mL (≈ 3.34 µM)
MIC [7]: 2 µg/mL (≈ 6.68 µM)
MIC [8]: > 16 µg/mL
MIC [9]: < 0.125 µg/mL
MIC [10]: 1 µg/mL (≈ 3.34 µM)
MIC [17]: ≤ 0.015 µg/mL
MIC [18]: 16 µg/mL (≈ 53.4 µM)
MIC [12]: 0.25 µg/mL (≈ 0.835 µM)
MIC [19]: 16 µg/mL (≈ 53.4 µM)
MIC [20]: ≤ 0.25 µg/mL
MIC [13]: > 64 µg/mL
MIC [21]: > 64 µg/mL
MIC [22]: > 64 µg/mL
MIC [23]: ≤ 0.015 µg/mL
MIC [24]: 1 µg/mL (≈ 3.34 µM)
MIC [15]: 1 µg/mL (≈ 3.34 µM)

Structure (SMILES): CO[C@@H](CNC(=O)[C@H](NC(=O)[C@H](O)[C@H](C)O)[C@H](O)c1cncn1C)[C@H](O)[C@H](O)C(=O)N(C)[C@@H](Cc1ccccc1)C(=O)NCC(=O)N[C@H](C(=O)N[C@@H](CO)C(=O)N[C@H](C(=O)N[C@H](C(=O)N[C@@H](CO)C(=O)N[C@@H](CCC(=O)NCc1cc(=O)c(O)cn1O)C(=O)O)C(C)(C)C)C(C)(C)O)C(C)(C)O
Activity [25]: Active
remaining at 1 h [26]: 91%
MIC [27]: 0.12 µg/mL
MIC [28]: > 32 µg/mL
MIC [29]: < 0.01 µg/mL
MIC [30]: 0.25 µg/mL
Activity [31]: Active
remaining at 4 h [32]: 81%
Activity [33]: Active
remaining at 4 h [34]: 86%
remaining at 1 h [35]: 92%
MIC [36]: 0.06 µg/mL
Activity [37]: -3.8 log10CFU

remaining at 1 h [26]: 35%
remaining at 4 h [32]: 11%
MIC [1]: > 32 µg/mL
remaining at 4 h [34]: 13%
MIC [3]: 16 µg/mL
remaining at 1 h [35]: 20%
MIC [4]: 4 µg/mL
Structure (SMILES): CC[C@H](C)[C@H](NC(=O)[C@@H](NC(=O)[C@H](CO)NC(=O)[C@@H](NC(=O)CNC(=O)[C@H](Cc1ccccc1)N(C)C(=O)[C@@H](O)[C@@H](O)[C@H](CNC(=O)[C@H](NC(=O)[C@H](O)[C@H](C)O)[C@H](O)c1cncn1C)OC)C(C)(C)O)C(C)(C)O)C(=O)N[C@@H](CO)C(=O)O
Activity [2]: -1.9 log10CFU

remaining at 1 h [26]: 105%
remaining at 4 h [32]: 72%
MIC [1]: > 32 µg/mL
remaining at 4 h [34]: 104%
MIC [3]: 2 µg/mL
remaining at 1 h [35]: 104%
MIC [4]: 2 µg/mL
Structure (SMILES): CO[C@@H](CNC(=O)[C@H](NC(=O)[C@H](O)[C@H](C)O)[C@H](O)c1cncn1C)[C@H](O)[C@H](O)C(=O)N(C)[C@@H](Cc1ccccc1)C(=O)NCC(=O)N[C@H](C(=O)N[C@@H](CO)C(=O)N[C@H](C(=O)N[C@H](C(=O)N[C@@H](CO)C(=O)O)C(C)(C)C)C(C)(C)O)C(C)(C)O
Activity [38]: -5.9 log10CFU

Structure (SMILES): CO[C@@H](CNC(=O)[C@H](NC(=O)[C@H](O)[C@H](C)O)[C@H](O)c1cncn1C)[C@H](O)[C@H](O)C(=O)N(C)[C@@H](Cc1ccccc1)C(=O)NCC(=O)N[C@H](C(=O)N[C@@H](CO)C(=O)N[C@H](C(=O)N[C@H](C(=O)N[C@@H](CCC(=O)NCc1cc(=O)c(O)cn1O)C(=O)O)C(C)(C)C)C(C)(C)O)C(C)(C)O
Activity [25]: Active
remaining at 1 h [26]: 100%
MIC [27]: 0.12 µg/mL
MIC [28]: > 32 µg/mL
MIC [29]: 0.01 µg/mL
MIC [30]: 0.5 µg/mL
Activity [31]: Active
remaining at 4 h [32]: 103%
Activity [33]: Active
remaining at 4 h [34]: 99%
remaining at 1 h [35]: 97%
MIC [36]: 0.25 µg/mL
Activity [37]: -3.2 log10CFU

— ChEMBL document CHEMBL5356971, “Optimization of the Antibacterial Spectrum and the Developability Profile of the Novel-Class Natural Product Corramycin” (J Med Chem, 2023)
